# Experimental data taken from US11357840B2, “Methods and compositions for reducing growth, migration and invasiveness of brain cancer stem cells and improving survival of patients with brain tumors” (HYPERSTEM SA, priority 2014, dated 2022).
# No end group written: not given here. *: point of attachment. Boc = CC(C)(C)OC(=O)*; For = O=C*
# Assays:
# [1] = system: growth factor independent (GFI) hGBM TPCs; assay: Matrigel invasion assay, GFI TPCs; type: cell-based, human
# From the text: Invasion Assays—Matrigel Invasion Assays
# An Invasion Assay is an in vitro system to study invasion capability of malignant and normal cells. Specific applications include assessment of the metastatic potential of tumor cells, inhibition of metastasis by extracellular matrix components or antineoplastic drugs, altered expression of cell surface proteins, or matrix metalloproteinases in metastatic cells; and invasion of normal cells such as embryonic stem cells, cytotrophoblasts, endothelial cells, and fibroblasts.
# According to one embodiment, the following Matrigel invasion assay protocol is one example of an invasion assay. A coating buffer is prepared and a Matrigel Matrix aliquot is thawed at 4° C. Then, a coating solution is prepared by mixing the Matrigel Matrix with the coating buffer. A number of permeable supports are transferred into the wells of a 24-well plate and 100 ul of the diluted Matrigel is put into each well of the 24-well plate. The plate is then incubated with the coated permeable support at 37° C. for 2 h for gelling. Cells are cultured and prepared for the invasion assay, for example, growth factor dependent hGBM tumor-propagating cells with stem-like characteristic (GFD TPCs) are pretreated with saturating concentrations of recombinant Wnt5a protein (GFD+R5); lentiviral-mediated over-expression GFD cells (GFD+LV5); growth factor independent (GFI) TPCs are treated with saturating concentrations of a Wnt5a-blocking antibody (AbW5) or of a recombinant Wnt3a protein (R3) or of a recombinant secreted frizzled-related protein 1 (SFRP1), or GFI TPCs exposed to Wnt5a-derived peptides termed Box5 (SEQ ID NO: 1), Peptide A (SEQ ID NO: 2) and Peptide B (SEQ ID NO: 3) Cell suspensions are prepared in culture medium containing 5×10^4 cells/mL for the 24 well invasion chambers. An aliquot of 0.5 mL of cell suspension (2.5×10^4 cells) is then added to each 24 well invasion chamber. A chemoattractant is added to the wells of the plate (such as fibronectin as an adhesive substrate). The Cell invasion chambers are then incubated overnight in a humidified tissue culture incubator at 37° C., 5% CO2 atmosphere. The noninvaded cells on the top of the Matrigel coated permeable support are scraped off with a cotton swab. Then the permeable supports from 24-well plates are removed and stained with a cell staining solution and the invaded cells are counted under a light microscope.
# [2] = system: hGBM TPC-derived tumors (GFI / GFD TPCs); assay: Orthotopic implantation of luciferase-tagged TPCs into SCID mice; type: in vivo, mouse (SCID); details: for tumor growth (luc-TPC signal, time course): GFI cells treated in culture prior to transplantation (pre-treatment), SCID mice, FIG. 18c; for tumor growth (luc-TPC signals, time course): co-injection (co-treatment) with either GFD or GFI TPCs, FIGS. 18e and 18f; for tumor spread through the brain parenchyma (luciferase immunolabeling): luc-GFI pre-treated vs untreated GFI TPCs, FIG. 18d
# Procedure: Evaluation of Tumorigenic Ability and Invasiveness In Vivo by Orthotopic Implantation
# Tumorigenicity was determined by injecting tumor cells into immunodeprived adult severe combined immunodeficiency (SCID) mice. (Galli et al., Cancer Res. 2004, 65:7011-7021). Tumor cells, for example, GFI TPCs, GFD TPCs, GFI TPCs pretreated with Box5 (SEQ ID NO: 1), GFI TPCs pretreated with PeptideA (SEQ ID NO: 2) were injected into SCID mice orthotopically to evaluate the tumorigenic ability and invasiveness in vivo. Also, GFD or GFI TPCs and Wnt5a-blocking protein (AbWt), alone or in combination with BMP4 (B4), Box5 (SEQ ID NO: 1) and PeptideA (SEQ ID NO: 2) were co-injected into the SCID mice.
# Mice were sacrificed at different times. Serial histological reconstruction of mouse brain sections were immunolabeled for luciferase for evaluation.
# Results from in vivo experiments were all subjected to statistical analysis. Survival curves were estimated using the Kaplan-Meier method.
# GFI or GFD TPCs = assay: Growth kinetics (expansion) of TPCs; type: cell-based, human; details: FIG. 16g
# melanoma cells = details: Jenei et al. 2009; cited from earlier work
# 4T1 breast cancer cells = details: in vitro; Safholm et al. 2008; cited from earlier work
# [3] = system: growth factor dependent hGBM TPCs (GFD TPCs); assay: Matrigel invasion assay, GFD TPCs; type: cell-based, human; details: GFD cells treated with saturating concentrations (GFD+R5); FIG. 16a
# Procedure: According to one embodiment, the following Matrigel invasion assay protocol is one example of an invasion assay. A coating buffer is prepared and a Matrigel Matrix aliquot is thawed at 4° C. Then, a coating solution is prepared by mixing the Matrigel Matrix with the coating buffer. A number of permeable supports are transferred into the wells of a 24-well plate and 100 ul of the diluted Matrigel is put into each well of the 24-well plate. The plate is then incubated with the coated permeable support at 37° C. for 2 h for gelling. […] Then the permeable supports from 24-well plates are removed and stained with a cell staining solution and the invaded cells are counted under a light microscope. […]
# [4] = GFI TPCs exposed to Wnt5a-derived peptides, FIGS. 16c and 16d
# [5] = saturating concentrations, FIG. 16b
molecule,measurement,setting,value
"t-butoxycarbonyl-Met-Asp-Gly-Cys-Glu-Leu (Boc-MDGCEL) [Box5, Wnt5a-derived hexapeptide MDGCEL, antagonist of Wnt5a, modified from Foxy-5, reference compound]",invasiveness of GFI TPCs,[1]; [4],decreased the invasiveness of GFI TPCs in a dose-dependent fashion
same,"tumor growth (luc-TPC signal, time course)",[2],tumor growth is decreased
same,"tumor growth (luc-TPC signals, time course)",[2],inhibited
same,tumor spread through the brain parenchyma (luciferase immunolabeling),[2],spread through the brain parenchyma less
same,ability of GFI or GFD TPCs to expand (slope of the growth curves),GFI or GFD TPCs,negligible effects
same,antagonism of Wnt5a-mediated migration and invasion of melanoma cells,melanoma cells,"potent, selective antagonist"
"For-MDGCEL [Foxy-5, reference compound]",apoptosis or proliferation of 4T1 breast cancer cells,4T1 breast cancer cells,without affecting
same,migration and invasion of 4T1 breast cancer cells,4T1 breast cancer cells,impaired migration and invasion
"Leu-Glu-Gly-Asp-Met (LEGDM) [Peptide B, pentapeptide LEGDM, peptide derivative of Box5]",invasiveness of GFI TPCs,[1]; [4],decreased the invasiveness of GFI TPCs in a dose-dependent fashion
"LECGDM [Peptide A, hexapeptide LECGDM, peptide derivative of Box5]",invasiveness of GFI TPCs,[1]; [4],decreased the invasiveness of GFI TPCs in a dose-dependent fashion
same,"tumor growth (luc-TPC signal, time course)",[2],tumor growth is decreased
same,"tumor growth (luc-TPC signals, time course)",[2],inhibited
same,tumor spread through the brain parenchyma (luciferase immunolabeling),[2],spread through the brain parenchyma less
same,ability of GFI or GFD TPCs to expand (slope of the growth curves),GFI or GFD TPCs,negligible effects
recombinant Wnt5a protein: recombinant Wnt5a protein (protein) IIGAQPLCSQLAGLSQGQKKLCHLYQDHMQYIGEGAKTGIKECQYQFRHRRWNCSTVDNTSVFGRVMQIGSRETAFTYAVSAAGVVNAMSRACREGELSTCGCSRAARPKDLPRDWLWGGCGDNIDYGYRFAKEFVDARERERIHAKGSYESARILMNLHNNEAGRRTVYNLADVACKCHGVSGSCSLKTCWLQLADFRKVGDALKEKYDSAAAMRLNSRGKLVQVNSRFNSPTTQDLVYIDPSPDYCVRNESTGSLGTQGRLCNKTSEGMDGCELMCCGRGYDQFKTVQTERCHCKFHWCCYVKCKKCTEIVDQFVCK,apoptosis or proliferation of 4T1 breast cancer cells,4T1 breast cancer cells,without affecting
same,migration and invasion of 4T1 breast cancer cells,4T1 breast cancer cells,impaired migration and invasion
same,cell migration of GFD cells,[3],increase in cell migration
"recombinant Wnt3a protein: recombinant Wnt3a protein (R&D Systems) (protein, UniProt P56704 19-352, looked up) Protein Wnt-3a: SYPIWWSLAVGPQYSSLGSQPILCASIPGLVPKQLRFCRNYVEIMPSVAEGIKIGIQECQHQFRGRRWNCTTVHDSLAIFGPVLDKATRESAFVHAIASAGVAFAVTRSCAEGTAAICGCSSRHQGSPGKGWKWGGCSEDIEFGGMVSREFADARENRPDARSAMNRHNNEAGRQAIASHMHLKCKCHGLSGSCEVKTCWWSQPDFRAIGDFLKDKYDSASEMVVEKHRESRGWVETLRPRYTYFKVPTERDLVYYEASPNFCEPNPETGSFGTRDRTCNVSSHGIDGCDLLCCGRGHNARAERRREKCRCVFHWCCYVSCQECTRVYDVHTCK",invasiveness of GFI TPCs,[1]; [5],decreased the invasiveness
"SFRP1: recombinant secreted frizzled-related protein 1, an endogenous Wnt antagonist (protein, UniProt Q8N474 32-314, looked up) Secreted frizzled-related …: SEYDYVSFQSDIGPYQSGRFYTKPPQCVDIPADLRLCHNVGYKKMVLPNLLEHETMAEVKQQASSWVPLLNKNCHAGTQVFLCSLFAPVCLDRPIYPCRWLCEAVRDSCEPVMQFFGFYWPEMLKCDKFPEGDVCIAMTPPNATEASKPQGTTVCPPCDNELKSEAIIEHLCASEFALRMKIKEVKKENGDKKIVPKKKKPLKLGPIKKKDLKKLVLYLKNGADCPCHQLDNLSHHFLIMGRKVKSQYLLTAIHKWDKKNKEFKNFMKKMKNHECPTFQSVFK",invasiveness of GFI TPCs,[1]; [5],decreased the invasiveness
"BMP4: bone morphogenetic protein 4, positive control (protein, UniProt P12644 293-408, looked up) Bone morphogenetic protein 4: SPKHHSQRARKKNKNCRRHSLYVDFSDVGWNDWIVAPPGYQAFYCHGDCPFPLADHLNSTNHAIVQTLVNSVNSSIPKACCVPTELSAISMLYLDEYDKVVLKNYQEMVVEGCGCR",ability of GFI or GFD TPCs to expand (slope of the growth curves),GFI or GFD TPCs,significantly triggered negative deviations from the growth kinetics
